The record followed here is paper PMC8624998, “Synthesis and Antiproliferative Evaluation of 3-Chloroazetidin-2-ones with Antimitotic Activity: Heterocyclic Bridged Analogues of Combretastatin A-4” (Pharmaceuticals, 2021).

What is called IC50 is the concentration that gives 50% inhibition. As usually defined, the melting point is the temperature of the solid-liquid transition.

Read-outs that look alike come from different tables or passages of the source. Marks after values point to notes of the source that are not given here.

One data set concerns MCF-7 cells. Put plainly: Cell viability assay (MTT/AlamarBlue), antiproliferative activity. It counts as cell-based, human. The following applies: for IC50: Homo sapiens, MCF7, 72 h, read-out: IC50 (MCF-7, 72 h). From the text:
[…]. The introduction of the halogen substituent at C-3 was examined in an effort to investigate the effect on the activity of this substituent, and subsequently optimising the cytotoxic effects against MCF-7 human breast cancer cells.
The human breast carcinoma cell line MCF-7 was purchased from the European Collection of Animal Cell Cultures (ECACC). Triple negative breast cancer Hs578T cells and its invasive variant Hs578Ts(i)8 were a kind gift from Dr. Susan McDonnell, School of Chemical and Bioprocess Engineering, University College Dublin. U266 cells were a gift from Dr. Tony McElligott, School of Medicine, St James’s Hospital, Trinity College Dublin. HT-29 cells were purchased from the European Collection of Cell Cultures (originating from a human adenocarcinoma of the colon). The human breast carcinoma cell line MDA-MB-231 and the HL-60 cells derived from a patient with acute myeloid leukaemia were both obtained from ECACC (Salisbury, UK). The SW-480 cells were a kind gift from Dr. Brian Flood, School of Biochemistry and Immunology, Trinity College Dublin. HEK-293T (normal epithelial embryonic kidney cells) were cultured in Dulbecco’s Modified Eagle’s Medium (DMEM) with GlutaMAXTM-I in the absence of non-essential amino acids. Human breast cancer MCF-7 cells and multiple myeloma U266 cells were cultured in Minimum Essential Media (MEM) with GlutaMAX™-I, supplemented with 1% (v/v) non-essential amino acids, 10% 2(v/v) foetal bovine serum (FBS) and 1% (v/v) penicillin/streptomycin 5000 U/mL. MDA-MB-231 cells were maintained in DMEM supplemented with 10% (v/v) foetal bovine serum, 2 mM L-glutamine and 100 μg/mL penicillin/streptomycin (complete medium). Colon cancer HT-29 and SW-480 and triple negative breast cancer Hs578T and its invasive variant Hs578T8i were cultured in DMEM with GlutaMAX™-I, with the same supplement in the absence of non-essential amino acids. Leukaemia HL-60 cancer cells were cultured in Roswell Park Memorial Institute Media (RPMI-1640) with GlutaMAX™-I, supplemented with 10% FCS media, and 100 μg/mL penicillin/streptomycin as above. Cell numbers were monitored using a haemocytometer. Cell culture flasks were incubated in a humidified incubator (5% CO2/95% air) at 37 °C. All cell lines were sub-cultured three times per week with trypsinisation using TrypLE Express (1X) required for adherent cell lines.
. All stock solutions and serial dilution in ethanol/DMSO were stored at -20 °C. All cells were seeded at a density of 2.5 × 10^4 cells/mL in a 96-well plate (200 μL per well). The cells were incubated in a […] atmosphere at 37 °C for 24 h, then treated with test compound (2 μL of stock solutions per 200-microlitre well) in ethanol to obtain a concentration range of 1 nM–200 μM for the study. The plates were then re-incubated for a further 72 h. Control wells contained an equivalent volume of the vehicle ethanol or DMSO (1% v/v). MTT cell viability assay: The culture medium was removed, and the cells were washed with phosphate buffered saline (PBS, […]). MTT (dissolved in PBS, […]) was added to obtain a final concentration of MTT (1 mg/mL). Cells were incubated at 37 °C for 3 h in the dark. Solubilisation was commenced by the addition of DMSO ([…]) and the cells were maintained at 20 °C in the dark for 20 min before reading the absorbance to ensure complete colour diffusion. The absorbance value of control cells (no added compound) was set to 100% cell viability and absorbance versus cell density per well was determined to assess cell viability using Graph-Pad Prism software. AlamarBlue cell viability assay: Cells were seeded in 96-well plates (e.g., MCF-7, 5 × 10^3 cells/well) and (HT-29 cells, 1 × 10^3 cells/well) and (HL-60 cells, 1 × 10^4 cells/well) with a total volume per well of 200 µL. After 24 h, cells were treated in triplicate with serial dilutions of CA-4 or β-lactam analogues (0.001–100 μM), medium alone or vehicle (1% ethanol (v/v)). […]
For orientation: The colour change of resazurin is a common sign of viable cells or microbes.

Consider `COc1ccc([C@@H]2[C@H](Cl)C(=O)N2c2cc(OC)c(OC)c(OC)c2)cc1` (relative stereo) [Compound 10e cis, Cis-3-chloro-1-(3,4,5-trimethoxyphenyl)-4-(4-methoxyphenyl) azetidin-2-one], for which the IC50 with MCF-7 cells (MCF-7, 72 h) is 0.317 ± 0.04 µM.

The molecule `COc1ccc(C2C(Cl)C(=O)N2c2cc(OC)cc(OC)c2)cc1` (stereo not drawn) [Compound 14a, 3-Chloro-1-(3,5-dimethoxyphenyl)-4-(4-methoxyphenyl)azetidin-2-one] displayed a melting point of 93 to 94 °C. The concentration for half-maximal inhibition (IC50) in the data set with MCF-7 cells (MCF-7, 72 h) amounted to 0.68 ± 0.16 µM.

`COc1cc(N2C(=O)C(Cl)(Cl)C2c2ccccc2)cc(OC)c1OC` (stereo not drawn) [Compound 11a, 3,3-Dichloro-1-(3,4,5-trimethoxyphenyl)-4-phenylazetidin-2-one] had a melting point of 80 to 81 °C. For the same molecule, in the data set on MCF-7 cells (MCF-7, 72 h), the IC50 is 37.2 ± 3.21 µM.

As to `COc1cc(N2C(=O)C(Cl)C2c2ccc(Cl)cc2)cc(OC)c1OC` (stereo not drawn) [Compound 10b, 3-Chloro-4-(4-chlorophenyl)-1-(3,4,5-trimethoxyphenyl)azetidin-2-one], in the data set with MCF-7 cells (MCF-7, 72 h), the IC50 was found to be 1.3 ± 0.17 µM.

Take `COc1ccc(C2C(Br)C(=O)N2c2cc(OC)c(OC)c(OC)c2)cc1F` (stereo not drawn) [Compound 16f, 3-Bromo-4-(3-fluoro-4-methoxyphenyl)-1-(3,4,5-trimethoxyphenyl) azetidin-2-one]: the IC50 in the data set on MCF-7 cells (MCF-7, 72 h) was found to be 0.39 ± 0.03 µM.

Turning to `COc1ccc(C2N(c3cc(OC)c(OC)c(OC)c3)C(=O)C2(Cl)Cl)cc1OP(=O)(O)O` (stereo not drawn) [Compound 18, 5-(3,3-Dichloro-1-(3,4,5-trimethoxyphenyl)-4-oxoazetidin-2-yl)-2-methoxyphenyl dihydrogen phosphate], the IC50 in the data set on MCF-7 cells came to 0.077 ± 0.01 µM.

In the case of `COc1ccc(N2C(=O)C(Cl)(Cl)C2c2cc(OC)c(OC)c(OC)c2)cc1` (stereo not drawn) [Compound 13a, 3,3-Dichloro-4-(3,4,5-trimethoxyphenyl)-1-(4-methoxyphenyl)azetidin-2-one], the melting point was 64 to 66 °C. For the same molecule, the IC50 with MCF-7 cells (MCF-7, 72 h) is 45.9 ± 6.73 µM.

In the case of `COc1cc(N2C(=O)C(Cl)(Cl)C2c2ccc(OCc3ccccc3)cc2)cc(OC)c1OC` (stereo not drawn) [Compound 11h, 4-(4-Benzyloxyphenyl)-3,3-dichloro-1-(3,4,5-trimethoxyphenyl) azetidin-2-one], the IC50 with MCF-7 cells (MCF-7, 72 h) was 36.3 ± 3.68 µM.

As for `COc1cc(N2C(=O)C(Cl)(Cl)C2c2ccc([N+](=O)[O-])cc2)cc(OC)c1OC` (stereo not drawn) [Compound 11d, 3,3-Dichloro-1-(3,4,5-trimethoxyphenyl)-4-(4-nitrophenyl)azetidin-2-one], the melting point is 116 to 118 °C. The IC50 in the data set on MCF-7 cells (MCF-7, 72 h) turned out to be 61.6 ± 7.61 µM.

As to `COc1cc(N2C(=O)C(Cl)C2c2ccccc2)cc(OC)c1OC` (stereo not drawn) [Compound 10a, 3-Chloro-1-(3,4,5-trimethoxyphenyl)-4-phenylazetidin-2-one], the half-maximal inhibitory concentration (IC50) in the data set with MCF-7 cells (MCF-7, 72 h) is 23.4 ± 2.8 µM.

For the molecule `COc1cc(N2C(=O)C(Cl)(Cl)C2c2cccc3ccccc23)cc(OC)c1OC` (stereo not drawn) [Compound 11j, 3,3-Dichloro-1-(3,4,5-trimethoxyphenyl)-4-(naphthalen-1-yl)azetidin-2-one], the melting point was 146 to 148 °C. In the data set on MCF-7 cells (MCF-7, 72 h), the concentration for half-maximal inhibition (IC50) came to 7.99 ± 0.7 µM.

Consider `COc1cc(N2C(=O)C(Cl)C2c2ccc(Oc3ccccc3)cc2)cc(OC)c1OC` (stereo not drawn) [Compound 10g, 3-Chloro-1-(3,4,5-trimethoxyphenyl)-4-(4-phenoxyphenyl)azetidin-2-one], for which the IC50 in the data set on MCF-7 cells (MCF-7, 72 h) was determined as 64.1 ± 7.3 µM.

Turning to `COc1ccc(C2C(Br)C(=O)N2c2cc(OC)c(OC)c(OC)c2)cc1C` (stereo not drawn) [Compound 16e, 3-Bromo-4-(4-methoxy-3-methylphenyl)-1-(3,4,5-trimethoxyphenyl) azetidin-2-one], the IC50 in the data set on MCF-7 cells (MCF-7, 72 h) was found to be 0.525 ± 0.03 µM.

For the molecule `CCOc1ccc(C2N(c3cc(OC)cc(OC)c3)C(=O)C2(Cl)Cl)cc1` (stereo not drawn) [Compound 15b, 3,3-Dichloro-1-(3,5-dimethoxyphenyl)-4-(4-ethoxyphenyl)azetidin-2-one], in the data set on MCF-7 cells (MCF-7, 72 h), the half-maximal inhibitory concentration (IC50) is 0.273 ± 0.01 µM.

With `COc1ccc(C2C(Br)C(=O)N2c2cc(OC)c(OC)c(OC)c2)cc1Br` (stereo not drawn) [Compound 16h, 3-Bromo-4-(3-bromo-4-methoxyphenyl)-1-(3,4,5-trimethoxyphenyl) azetidin-2-one], the half-inhibitory concentration (IC50) with MCF-7 cells (MCF-7, 72 h) came to 0.62 ± 0.04 µM.

`COc1ccc(C2C(Cl)C(=O)N2c2cc(OC)c(OC)c(OC)c2)cc1[N+](=O)[O-]` (stereo not drawn) [Compound 10m, 3-Chloro-4-(4-methoxy-3-nitrophenyl)-1-(3,4,5-trimethoxyphenyl) azetidin-2-one] returned a melting point of 93 to 95 °C. Also, the half-maximal inhibitory concentration (IC50) in the data set on MCF-7 cells (MCF-7, 72 h) was determined as 3.09 ± 0.41 µM.

With `COc1cc(C2N(c3ccc(SC)cc3)C(=O)C2(Cl)Cl)cc(OC)c1OC` (stereo not drawn) [Compound 13c, 3,3-Dichloro-1-(4-(methylthio)phenyl)-4-(3,4,5-trimethoxyphenyl) azetidin-2-one], the melting point lay in the range of 117 to 119 °C. The “inhibition of cell viability at a concentration of 10 μM” value in the data set on MCF-7 cells (MCF-7, 72 h) is reported as 20% (10 μM)^c.

As for `COc1ccc(C2C(Br)C(=O)N2c2cc(OC)c(OC)c(OC)c2)cc1Cl` (stereo not drawn) [Compound 16g, 3-Bromo-4-(3-chloro-4-methoxyphenyl)-1-(3,4,5-trimethoxyphenyl) azetidin-2-one], the IC50 in the data set on MCF-7 cells (MCF-7, 72 h) was found to be 0.472 ± 0.2 µM.

The molecule `COc1cc(C2C(Cl)C(=O)N2c2ccc(SC)cc2)cc(OC)c1OC` (stereo not drawn) [Compound 12c, 3-Chloro-1-(4-(methylthio)phenyl)-4-(3,4,5-trimethoxyphenyl) azetidin-2-one] displayed a melting point of 101 to 103 °C. In addition, in the data set with MCF-7 cells (MCF-7, 72 h), the “inhibition of cell viability at a concentration of 10 μM” value is recorded as 10% (10 μM) ^c.

`COc1cc(N2C(=O)C(Cl)C2c2ccc(Br)cc2)cc(OC)c1OC` (stereo not drawn) [Compound 10c, 4-(4-Bromophenyl)-3-chloro-1-(3,4,5-trimethoxyphenyl)azetidin-2-one]: the IC50 in the data set on MCF-7 cells (MCF-7, 72 h) stood at 0.506 ± 0.11 µM.

Turning to `COc1ccc(C2N(c3cc(OC)cc(OC)c3)C(=O)C2(Cl)Cl)cc1` (stereo not drawn) [Compound 15a, 3,3-Dichloro-1-(3,5-dimethoxyphenyl)-4-(4-methoxyphenyl)azetidin-2-one], the IC50 in the data set with MCF-7 cells (MCF-7, 72 h) came to 6.61 ± 2 µM.

In the case of `COc1ccc(C2N(c3cc(OC)c(OC)c(OC)c3)C(=O)C2(Cl)Cl)cc1[N+](=O)[O-]` (stereo not drawn) [Compound 11m, 3,3-Dichloro-4-(4-methoxy-3-nitrophenyl)-1-(3,4,5-trimethoxyphenyl) azetidin-2-one], the melting point is 117 to 119 °C. For the same molecule, the IC50 in the data set with MCF-7 cells (MCF-7, 72 h) is 0.353 ± 0.04 µM.

`COc1cc(N2C(=O)C(Cl)(Cl)C2c2ccc(Cl)cc2)cc(OC)c1OC` (stereo not drawn) [Compound 11b, 3,3-Dichloro-4-(4-chlorophenyl)-1-(3,4,5-trimethoxyphenyl)azetidin-2-one]: the melting point was in the range of 150 to 153 °C. Besides, the concentration for half-maximal inhibition (IC50) in the data set on MCF-7 cells (MCF-7, 72 h) came out at 12.8 ± 1.08 µM.

The molecule `COc1ccc(N2C(=O)C(Cl)C2c2cc(OC)c(OC)c(OC)c2)cc1` (stereo not drawn) [Compound 12a, 3-Chloro-1-(4-methoxyphenyl)-4-(3,4,5-trimethoxyphenyl)azetidin-2-one] showed a melting point of 101 to 102 °C. In addition, the 50% inhibitory concentration (IC50) in the data set with MCF-7 cells (MCF-7, 72 h) is 14.8 ± 1.58 µM.

On to `COc1cc(N2C(=O)C(Cl)C2c2ccc([N+](=O)[O-])cc2)cc(OC)c1OC` (stereo not drawn) [Compound 10d, 3-Chloro-1-(3,4,5-trimethoxyphenyl)-4-(4-nitrophenyl)azetidin-2-one], for which the IC50 with MCF-7 cells (MCF-7, 72 h) turned out to be 4.37 ± 0.61 µM.

As for `CCOc1ccc(C2C(Cl)C(=O)N2c2cc(OC)cc(OC)c2)cc1` (stereo not drawn) [Compound 14b, 3-Chloro-1-(3,5-dimethoxyphenyl)-4-(4-ethoxyphenyl)azetidin-2-one], the melting point was in the range of 129 to 130 °C. Moreover, the half-inhibitory concentration (IC50) in the data set on MCF-7 cells (MCF-7, 72 h) stood at 0.045 ± 0.01 µM.

In the case of `COc1cc(N2C(=O)C(Br)C2c2ccc(SC)cc2)cc(OC)c1OC` (stereo not drawn) [Compound 16c, 3-Bromo-4-(4-(methylthio)phenyl)-1-(3,4,5-trimethoxyphenyl)azetidin-2-one], in the data set with MCF-7 cells (MCF-7, 72 h), the IC50 came out at 0.613 ± 0.04 µM.
